Results published in ChEMBL document CHEMBL1201862, “PubChem BioAssay data set” (2004).
Calls of active or inactive are those of the source.

Experiments:
[1] = target: FAD-linked sulfhydryl oxidase ALR (Homo sapiens, UniProt P55789); assay: ALR-catalysed DTT oxidation blockers – biochemical, H2O2 detection, luminescence, cherry-pick, dose response (AID 493248)
Protein skinhead-1 = target: T1, Protein skinhead-1 (Caenorhabditis elegans, UniProt P34707); type: functional
T1 sequence (P34707 whole entry): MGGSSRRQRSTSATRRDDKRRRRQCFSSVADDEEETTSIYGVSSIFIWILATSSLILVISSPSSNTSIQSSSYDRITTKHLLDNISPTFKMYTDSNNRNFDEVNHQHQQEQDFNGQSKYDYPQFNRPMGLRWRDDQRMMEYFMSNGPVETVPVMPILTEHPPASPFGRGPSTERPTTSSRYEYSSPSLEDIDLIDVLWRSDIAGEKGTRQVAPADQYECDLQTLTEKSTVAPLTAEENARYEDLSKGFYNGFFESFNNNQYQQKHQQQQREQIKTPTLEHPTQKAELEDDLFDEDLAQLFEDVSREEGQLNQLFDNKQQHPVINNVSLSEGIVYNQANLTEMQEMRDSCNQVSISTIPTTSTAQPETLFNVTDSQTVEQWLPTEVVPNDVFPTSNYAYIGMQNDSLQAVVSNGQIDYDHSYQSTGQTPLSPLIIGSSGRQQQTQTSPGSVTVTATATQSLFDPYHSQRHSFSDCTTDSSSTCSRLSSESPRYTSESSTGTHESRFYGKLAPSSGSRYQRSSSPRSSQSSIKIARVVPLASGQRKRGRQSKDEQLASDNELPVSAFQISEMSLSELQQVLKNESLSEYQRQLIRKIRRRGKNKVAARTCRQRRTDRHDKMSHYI

Cytochrome P450 3A4 = Cytochrome P450 3A4 (Homo sapiens, UniProt P08684);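 note: CYP3A4 tested as one member of a cytochrome P450 panel screen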
Sequence of Cytochrome P450 3A4 (P08684 whole entry): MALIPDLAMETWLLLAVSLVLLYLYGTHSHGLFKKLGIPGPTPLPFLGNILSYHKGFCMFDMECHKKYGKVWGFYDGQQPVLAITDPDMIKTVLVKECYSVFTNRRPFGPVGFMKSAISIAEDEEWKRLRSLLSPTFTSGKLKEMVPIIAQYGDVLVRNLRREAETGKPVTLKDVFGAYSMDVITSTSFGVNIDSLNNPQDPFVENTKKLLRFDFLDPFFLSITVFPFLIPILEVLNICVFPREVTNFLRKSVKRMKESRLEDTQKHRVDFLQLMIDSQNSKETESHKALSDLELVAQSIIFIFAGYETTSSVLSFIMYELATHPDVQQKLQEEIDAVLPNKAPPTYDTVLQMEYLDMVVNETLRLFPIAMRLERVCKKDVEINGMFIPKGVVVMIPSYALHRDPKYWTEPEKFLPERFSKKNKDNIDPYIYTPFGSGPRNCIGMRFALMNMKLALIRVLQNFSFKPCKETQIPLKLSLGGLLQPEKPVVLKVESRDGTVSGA

Cytochrome P450 2C9 = Cytochrome P450 2C9 (Homo sapiens, UniProt P11712)
Sequence of Cytochrome P450 2C9 (P11712 whole entry): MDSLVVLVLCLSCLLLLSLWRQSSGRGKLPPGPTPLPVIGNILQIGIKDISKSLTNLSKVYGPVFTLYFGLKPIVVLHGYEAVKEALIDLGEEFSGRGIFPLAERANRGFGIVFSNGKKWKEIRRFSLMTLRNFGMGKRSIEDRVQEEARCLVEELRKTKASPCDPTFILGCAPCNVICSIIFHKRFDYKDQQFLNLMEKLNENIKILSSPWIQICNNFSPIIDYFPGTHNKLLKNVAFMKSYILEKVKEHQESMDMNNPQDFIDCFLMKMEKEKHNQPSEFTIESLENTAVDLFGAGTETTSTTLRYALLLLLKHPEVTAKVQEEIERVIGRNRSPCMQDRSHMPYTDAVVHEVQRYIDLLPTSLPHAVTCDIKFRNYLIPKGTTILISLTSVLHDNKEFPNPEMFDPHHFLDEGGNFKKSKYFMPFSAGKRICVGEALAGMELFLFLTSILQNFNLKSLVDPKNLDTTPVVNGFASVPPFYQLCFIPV

[2] = target: T2, Heat shock factor protein 1 (Mus musculus, UniProt P38532); assay: enhancement of HSF1-driven luciferase signal – cell-based, NIH3T3, luminescence, dose retest, confirmation (AID 435004); type: functional;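 note: stress induced by proteasome inhibitor MG132 added 30 min after compound; luciferase reporter driven by HSF1 response element in NIH3T3 cells; actives raise luminescence as potentiators of the MG132 stress response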
T2 sequence (P38532 whole entry): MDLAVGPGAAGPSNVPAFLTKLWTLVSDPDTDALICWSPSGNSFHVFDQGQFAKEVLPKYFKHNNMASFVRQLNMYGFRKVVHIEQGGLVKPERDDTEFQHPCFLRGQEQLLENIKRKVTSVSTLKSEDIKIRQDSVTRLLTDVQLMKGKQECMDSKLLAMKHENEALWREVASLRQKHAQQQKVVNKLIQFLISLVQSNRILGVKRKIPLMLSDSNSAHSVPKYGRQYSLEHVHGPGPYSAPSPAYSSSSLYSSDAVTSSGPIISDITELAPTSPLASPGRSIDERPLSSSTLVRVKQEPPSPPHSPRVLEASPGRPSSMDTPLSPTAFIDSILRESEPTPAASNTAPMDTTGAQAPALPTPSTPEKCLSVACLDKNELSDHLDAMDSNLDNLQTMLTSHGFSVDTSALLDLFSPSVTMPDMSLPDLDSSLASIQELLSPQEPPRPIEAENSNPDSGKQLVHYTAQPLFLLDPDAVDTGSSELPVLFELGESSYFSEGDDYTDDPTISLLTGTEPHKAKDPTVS

Cytochrome P450 1A2 = target: T3, Cytochrome P450 1A2 (Homo sapiens, UniProt P05177);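 note: PubChem cytochrome P450 panel assay, CYP1A2 panel member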
T3 sequence (P05177 whole entry): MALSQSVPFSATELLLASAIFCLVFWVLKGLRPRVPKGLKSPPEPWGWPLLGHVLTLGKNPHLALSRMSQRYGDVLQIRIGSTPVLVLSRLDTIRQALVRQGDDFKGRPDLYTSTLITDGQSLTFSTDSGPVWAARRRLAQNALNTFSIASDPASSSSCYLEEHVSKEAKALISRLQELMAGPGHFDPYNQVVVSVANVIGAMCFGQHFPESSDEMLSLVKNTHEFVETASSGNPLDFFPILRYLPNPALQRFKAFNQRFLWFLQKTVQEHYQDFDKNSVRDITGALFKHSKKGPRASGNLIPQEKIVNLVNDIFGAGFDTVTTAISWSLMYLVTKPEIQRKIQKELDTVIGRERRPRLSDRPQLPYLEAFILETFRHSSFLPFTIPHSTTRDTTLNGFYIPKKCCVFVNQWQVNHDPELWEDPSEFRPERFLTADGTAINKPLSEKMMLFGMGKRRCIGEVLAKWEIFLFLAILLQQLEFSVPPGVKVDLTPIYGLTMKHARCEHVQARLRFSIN

[3] = microbe, parasite or virus in culture; type: functional; conditions: Mycobacterium tuberculosis
[4] = target: T2, Heat shock factor protein 1; assay: decrease of HSF1-responsive luciferase luminescence – cell-based, NIH3T3, dose retest, confirmation (AID 2382); type: functional;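 note: NIH3T3 fibroblasts with HSF1-driven luciferase reporter stressed by proteasome inhibitor MG132; luminescence from HSF1-driven luciferase expression after 8 hours of MG132 stress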
[5] = target: T4, Ubiquitin-conjugating enzyme E2 N (Homo sapiens, UniProt P61088); type: functional;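 note: Dose-response confirmation in a TR-FRET assay detecting UBC13-driven polyubiquitin chain formation, inhibition measured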
T4 sequence (P61088 whole entry): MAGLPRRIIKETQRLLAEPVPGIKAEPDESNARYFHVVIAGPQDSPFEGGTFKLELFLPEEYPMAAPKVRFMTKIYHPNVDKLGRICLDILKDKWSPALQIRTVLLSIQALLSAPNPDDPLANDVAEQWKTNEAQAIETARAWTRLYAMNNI

H4 = assay: Luminescence Cell-Based Dose Response HTS to Identify Activators of 5'UTR Stem-Loop Driven Prion Protein mRNA Translation in H4 Neuroglioblastoma Cells. [Related pubchem assays: 1829 (Project Summary), 1814 (Primary HTS)]; type: functional; conditions: Homo sapiens
[6] = Trypanosoma cruzi growth suppression in host cells – NIH3T3 host cells, beta-gal luminescence, confirmation (AID 2044); type: functional, cell-based;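 note: intracellular parasites grown in NIH/3T3 mouse fibroblasts as host cells; luminescent beta-galactosidase reporter signal from transgenic T. cruzi replicating inside host cells; inhibitors lower the luminescence signal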
Cytochrome P450 2C19 = Cytochrome P450 2C19 (Homo sapiens, UniProt P33261); assay: Cytochrome panel assay with activity outcomes. Panel member name: p450-cyp2c19 Compounds with AC50 equal or less than 10 uM are considered active; type: functional; conditions: read-out: AC50
Sequence of Cytochrome P450 2C19 (P33261 whole entry): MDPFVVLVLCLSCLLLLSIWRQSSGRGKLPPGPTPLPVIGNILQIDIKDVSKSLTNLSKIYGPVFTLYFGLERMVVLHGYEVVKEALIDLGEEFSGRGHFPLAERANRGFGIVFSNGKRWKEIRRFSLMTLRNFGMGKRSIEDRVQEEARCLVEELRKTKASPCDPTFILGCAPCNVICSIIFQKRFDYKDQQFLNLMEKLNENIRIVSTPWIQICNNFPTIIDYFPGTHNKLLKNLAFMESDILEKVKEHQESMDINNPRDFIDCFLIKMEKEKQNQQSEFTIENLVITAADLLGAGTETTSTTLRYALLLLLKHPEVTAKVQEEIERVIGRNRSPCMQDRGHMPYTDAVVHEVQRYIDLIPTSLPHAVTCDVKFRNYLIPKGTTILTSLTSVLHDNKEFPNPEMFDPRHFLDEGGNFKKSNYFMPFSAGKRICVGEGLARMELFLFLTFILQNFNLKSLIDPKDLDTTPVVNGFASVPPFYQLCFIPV

[7] = fluconazole-exposed Candida albicans growth modulators – fluorescence, retest, confirmation (AID 2467); type: functional, cell-based
[8] = NIH-3T3 fibroblast cytotoxicity, dose response, cytotoxicity control, cell-based, fluorescence, Alamar Blue, secondary assay (AID 2327); type: functional;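 note: NIH-3T3 mouse fibroblasts cultured with fluconazole at 8 µg/mL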
[9] = NIH3T3 cell viability loss – ATP luminescence, mouse fibroblasts, counter-screen, dose response (AID 2010); type: functional, cell-based;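 note: cells exposed to compound for about 90 hours before reading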
[10] = Luminescence Cell-Based Dose Response HTS to Identify Inhibitors of 5'UTR Stem-Loop Driven Prion Protein mRNA Translation in H4 Neuroglioblastoma Cells. [Related pubchem assays: 1827 (Project Summary), 1813 (Primary HTS)]; type: functional
Streptococcus = assay: GAS UMAA2166 growth inhibition – luminescence, BacTiterGlo, counter-screen for streptokinase expression inhibitor project, dose response (AID 1915); type: functional, organism-based;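 note: potency for reduction of bacterial viability or growth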
[11] = luciferase reporter signal suppression in cells – H4 neuroglioma cells, luminescence, dose response (AID 1990); type: functional, cell-based
[12] = tested on: Streptococcus sp. 'group A'; assay: Streptococcus pyogenes SK(-)GAS viability under kanamycin – luminescence, BacTiterGlo, confirmation, counter-screen for streptokinase expression inhibitor project, dose response (AID 1900); type: functional, organism-based
INS1 = assay: INS-1E survival protection against cytokine death – cell-based, luminescence, retest, dose response (AID 449756); type: functional; conditions: Rattus norvegicus;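 note: cell death triggered by IL-1 beta plus TNF-alpha plus IFN-gamma mixture; protective hits raise ATP signal compared with cytokine alone wells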
[13] = alpha-synuclein stem-loop luciferase translation blockers – H4 neuroglioma cells, luminescence, confirmation (AID 1988); type: functional, cell-based

Sequence of FAD-linked sulfhydryl oxidase ALR (P55789 whole entry): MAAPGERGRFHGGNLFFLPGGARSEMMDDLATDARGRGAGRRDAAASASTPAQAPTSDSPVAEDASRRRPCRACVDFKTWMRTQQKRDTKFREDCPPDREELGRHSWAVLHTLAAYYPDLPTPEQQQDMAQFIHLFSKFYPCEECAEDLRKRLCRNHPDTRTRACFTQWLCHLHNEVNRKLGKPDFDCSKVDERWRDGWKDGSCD

## CC(=O)N1CCN(C(=S)c2ccc(N(C)C)cc2)CC1
[1]
  AC50: 1.13 µM (active)

## Cn1c(-c2ccc(F)cc2)cnc1NCc1cc2c(cc1[N+](=O)[O-])OCO2
[1]
  AC50: 7.43 µM (active)

## Fc1ccc(-c2nnc(-c3ccc(F)cc3)o2)cc1
Protein skinhead-1
  IC50: > 100 µM (inactive)

## Nc1cc(O)nc(SCC(=O)Nc2ccc(S(=O)(=O)N3CCOCC3)cc2)n1
Cytochrome P450 3A4
  AC50: 28.2 µM (inconclusive)
Cytochrome P450 2C9
  AC50: 20 µM (inconclusive)
Protein skinhead-1
  IC50: > 100 µM (inactive)

## CC1Cc2ccccc2N1C(=O)C1CCN(S(=O)(=O)Cc2ccccc2)CC1 (configuration not stated)
Protein skinhead-1
  IC50: > 100 µM (inactive)

## COc1ccc(NC(=O)CN2CCN(Cc3ccc4c(c3)OCO4)CC2)cc1OC
Protein skinhead-1
  IC50: > 100 µM (inactive)

## CSc1ccc(CCNC(=O)c2nn(C)c3c2CS(=O)(=O)c2ccccc2-3)cc1
[2]
  EC50: > 260 µM (inactive)

## COC(=O)c1ccc(=O)n(Cc2ccco2)c1
Protein skinhead-1
  IC50: > 100 µM (inactive)

## Cc1nc(C(F)(F)F)c(C(=O)O)cc1-c1nc(-c2ccccc2)cs1
[1]
  AC50: 11.4 µM (active)

## O=C(O)c1ccc(CSc2nc3ccccc3o2)cc1
[1]
  AC50: 51.7 µM (active)
Cytochrome P450 1A2
  AC50: 0.0501 µM (inconclusive)
Cytochrome P450 2C9
  AC50: 39.8 µM (inconclusive)

## CCOC(=O)C1=C(c2ccccc2)NC(=O)NC1c1cc(Br)c(O)c(OC)c1 (configuration not stated)
[2]
  EC50: > 260 µM (inactive)

## Clc1ccc(Nc2ccc(-n3ccnc3)nn2)cc1Cl
[3]
  CC50: > 40 µM (active)
Protein skinhead-1
  IC50: > 100 µM (inactive)

## Nc1nc(Cl)nc2ccc(Br)cc12
[4]
  EC50: 5.71 µM (active)
[5]
  IC50: > 20 µM (inactive)

## Clc1ccc(CSc2ncn(-c3ccccc3)n2)cc1
Protein skinhead-1
  IC50: 10.3 µM (active)

## O=C(c1cc(-c2ccccc2)on1)N1CCc2ccccc2C1
Protein skinhead-1
  IC50: > 100 µM (inactive)

## COc1ccc(C)cc1-n1c(=O)c2ccccc2c2ccccc2c1=O
[2]
  EC50: 11.7 µM (active)

## Cc1ccc2oc(C(=O)N3CCC(O)(c4cccc(C(F)(F)F)c4)CC3)c(C)c2c1
[2]
  EC50: 54.9 µM (active)

## CCOC(=O)/C(C#N)=C/c1cn(CCC(=O)O)nc1-c1ccc(Cl)cc1
[2]
  EC50: > 260 µM (inactive)

## COc1ccc(OC)c2c(C)cc(N3CCCN(C)CC3)nc12
[1]
  AC50: 22 µM (active)

## Brc1cccc(OCCSc2ncccn2)c1
Protein skinhead-1
  IC50: 63.6 µM (inactive)

## Clc1ccc(-c2nc(-c3cnccn3)no2)cc1
Protein skinhead-1
  IC50: 74.1 µM (inactive)

## O=[N+]([O-])C(/C=C(\Cl)[N+](=O)[O-])=C(N1CCCCC1)N1CCCCC1
H4
  EC50: > 120 µM (not active)
[6]
  EC50: 0.956 µM (active)

## COc1cc(-c2cc(C(=O)Nc3ccc(S(N)(=O)=O)cc3)c3ccccc3n2)cc(OC)c1OC
[5]
  IC50: > 20 µM (inactive)

## Fc1ccc2nc(Nc3nc4c(s3)CCCC4)sc2c1
H4
  EC50: 0.986 µM (active)

## CCC(Sc1nc2nnc(C)c-2c(N)n1-c1ccc(C)c(Cl)c1)C(=O)N1CCOCC1 (configuration not stated)
[2]
  EC50: > 260 µM (inactive)

## CNc1nc(N)c(C(=O)C23CC4CC(CC(C4)C2)C3)s1
[1]
  AC50: 0.437 µM (active)

## Nc1ccc(N2CCN(C(=O)c3ccco3)CC2)cc1
[1]
  AC50: 0.719 µM (active)
Cytochrome P450 2C19
  AC50: 8.91 µM (inconclusive)
Cytochrome P450 2C9
  AC50: 10 µM (inconclusive)

## COc1ccc(-c2cn(-c3ccc(C)cc3)c(=O)n2CC(=O)Nc2ccc(OC)cc2OC)cc1
Protein skinhead-1
  IC50: > 100 µM (inactive)

## CCn1cc(-c2ccccc2)c(C(=O)O)c1-c1ccc(OC)cc1
[1]
  AC50: 5.6 µM (active)

## CCC1CCCCN1CCCNC(=O)C1CCN(c2ncnc3c2nc2n3CCCCC2)CC1 (configuration not stated)
[5]
  IC50: > 20 µM (inactive)

## O=C(NCC(=O)N1CCN(c2ccccc2O)CC1)c1cccs1
[1]
  AC50: 4.14 µM (active)

## C#CCOCCOCCOCCNc1nc(N2CCN(C(=O)[C@H](CO)n3cc([C@@H](N)C(C)C)nn3)CC2)nc(N2CCN(C(=O)[C@H](CCCCN)n3cc([C@@H](N)[C@H](C)CC)nn3)CC2)n1
[5]
  IC50: > 20 µM (inactive)

## Cn1c(/C=N/Nc2nc3ccccc3[nH]2)nc2ccccc21
[7]
  EC50: > 38 µM (not active)
[8]
  EC50: 35.5 µM (active)
[3]
  CC50: > 40 µM (active)

## Cc1ccccc1C(=O)OC1OC(O)=C(Cl)/C1=N\c1ccccc1 (configuration not stated)
[5]
  IC50: > 20 µM (inactive)

## COc1ccc(/C=C(\NC(=O)c2ccccc2)C(=O)N/N=C/c2sccc2C)cc1
[2]
  EC50: > 260 µM (inactive)

## O=C1N=C(N/N=C/c2cccnc2)SC1Cc1ccc(SC(F)F)cc1 (configuration not stated)
[7]
  EC50: 1.87 µM (active)
[8]
  EC50: > 150 µM (inactive)
[9]
  EC50: 3.44 µM (active)
[10]
  EC50: 12.2 µM (active)
[6]
  EC50: 0.969 µM (active)
Streptococcus
  EC50: 8.36 µM (active)
[11]
  EC50: 11.9 µM (active)
[12]
  EC50: 3.31 µM (active)
INS1
  AC50: 2.56 µM (active)
[13]
  EC50: 12.3 µM (active)

## Cc1ccc(/C=N/NC(=O)c2cccc(S(=O)(=O)Nc3ccccc3Cl)c2)o1
[2]
  EC50: > 260 µM (inactive)
